We go through 23 molecules from US20260138961A1, “MODULATORS OF MITOCHONDRIAL DNA REPLICATION” (Pretzel Therapeutics, Inc., priority 2022, published 2026).

One may read the AC50 as the midpoint of the concentration-response curve, whichever way the signal moves.

In the first experiment the target is T1, wild type human POLγ (POLγA:WT) (Homo sapiens, UniProt P54098).
T1 sequence (P54098 1-1239): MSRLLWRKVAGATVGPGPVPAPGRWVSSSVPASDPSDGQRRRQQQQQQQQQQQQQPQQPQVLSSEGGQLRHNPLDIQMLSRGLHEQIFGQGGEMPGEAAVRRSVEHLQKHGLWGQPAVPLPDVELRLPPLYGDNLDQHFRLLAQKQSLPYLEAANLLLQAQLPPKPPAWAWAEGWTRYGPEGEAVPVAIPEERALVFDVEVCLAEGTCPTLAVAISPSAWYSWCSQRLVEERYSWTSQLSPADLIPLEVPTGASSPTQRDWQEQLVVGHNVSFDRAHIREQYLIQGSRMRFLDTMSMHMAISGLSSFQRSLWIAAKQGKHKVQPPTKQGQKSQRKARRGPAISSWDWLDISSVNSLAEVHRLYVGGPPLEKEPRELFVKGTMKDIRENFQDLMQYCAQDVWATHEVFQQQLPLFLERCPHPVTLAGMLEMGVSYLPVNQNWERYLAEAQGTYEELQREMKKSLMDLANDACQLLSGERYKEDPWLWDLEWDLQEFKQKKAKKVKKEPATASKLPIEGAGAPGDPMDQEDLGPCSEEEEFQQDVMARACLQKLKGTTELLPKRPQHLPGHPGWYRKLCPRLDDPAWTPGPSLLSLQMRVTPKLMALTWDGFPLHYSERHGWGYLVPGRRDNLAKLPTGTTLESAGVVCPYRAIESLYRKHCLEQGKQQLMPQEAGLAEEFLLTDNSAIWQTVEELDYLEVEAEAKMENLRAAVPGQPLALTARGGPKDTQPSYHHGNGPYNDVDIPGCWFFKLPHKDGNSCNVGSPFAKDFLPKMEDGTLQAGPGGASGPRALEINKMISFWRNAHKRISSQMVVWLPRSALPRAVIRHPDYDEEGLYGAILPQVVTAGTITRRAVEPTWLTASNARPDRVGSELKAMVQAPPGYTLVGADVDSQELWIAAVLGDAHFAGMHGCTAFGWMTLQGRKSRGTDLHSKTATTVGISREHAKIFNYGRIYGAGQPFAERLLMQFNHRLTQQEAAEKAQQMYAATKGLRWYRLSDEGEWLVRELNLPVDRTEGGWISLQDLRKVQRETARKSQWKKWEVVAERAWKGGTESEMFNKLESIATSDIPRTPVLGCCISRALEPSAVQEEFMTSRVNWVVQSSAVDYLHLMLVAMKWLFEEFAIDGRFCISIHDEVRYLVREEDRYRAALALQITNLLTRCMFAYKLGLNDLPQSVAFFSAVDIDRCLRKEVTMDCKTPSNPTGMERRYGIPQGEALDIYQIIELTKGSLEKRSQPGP
T1 sequence (Q9UHN1 1-485 partner): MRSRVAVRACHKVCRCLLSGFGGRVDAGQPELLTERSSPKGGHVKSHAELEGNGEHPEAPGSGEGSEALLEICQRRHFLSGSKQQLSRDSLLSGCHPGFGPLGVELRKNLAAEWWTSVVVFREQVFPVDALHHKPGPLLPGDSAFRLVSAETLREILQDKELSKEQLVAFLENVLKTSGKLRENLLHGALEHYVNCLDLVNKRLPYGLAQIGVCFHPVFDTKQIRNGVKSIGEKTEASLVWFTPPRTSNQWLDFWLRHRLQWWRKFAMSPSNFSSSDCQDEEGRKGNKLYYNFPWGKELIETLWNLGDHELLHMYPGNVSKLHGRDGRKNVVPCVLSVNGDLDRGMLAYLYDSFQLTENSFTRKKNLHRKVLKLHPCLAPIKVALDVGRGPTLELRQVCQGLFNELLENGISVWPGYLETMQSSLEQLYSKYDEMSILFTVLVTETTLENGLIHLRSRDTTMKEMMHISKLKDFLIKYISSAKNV
Put plainly: DNA polymerization assay, wild type POLγ. It counts as biochemical. To be noted: 0.1 μM dNTP, read-out: WT AC50 (μM) at 0.1 μM. As for the experimental part: DNA Polymerization Assay to Monitor Effects on Human Wildtype POLγ and Four Disease-Causing Mutant Variants of Human POLγ.
The ability of small molecules to stimulate the polymerase activity of POLγ was analyzed in a quantitative fluorescence SYBR Green I assay with fluorescence intensity (FI) readout.
In the presence of dNTPs, wild type human POLγ and mutant derivatives thereof were incubated with single-stranded, circular M13mp18 ssDNA hybridized to a short DNA oligonucleotide that functions as a primer for initiation of DNA synthesis. POLγ and mutant derivatives thereof will extend the primer and use the M13mp18 molecule as a template to synthesize long stretches of double-stranded DNA. SYBR Green I, which is a double-stranded DNA-binding dye, was used to quantify formation of double-stranded DNA in the reaction. When bound to double-stranded DNA, SYBR Green I fluorescence increases by up to 100-fold.
The assay was performed in the 384-well plate format. Upon addition of compounds, changes in double-stranded DNA synthesis activity can be monitored by following effects on fluorescent intensity.
The reactions also contained the accessory POLγB subunit, and the human mitochondrial single-stranded DNA binding protein (mtSSB).
The DNA template mixture used in the assay contained 0.5 nM primed M13 mp18 ssDNA, 400 nM mtSSB, 0.1 mM Tris-HCl (pH 8.0), 0.1 mM dNTP, 10 mM MgCl2, 0.1 mg/mL BSA, 1 mM TCEP solution, and 0.02% Triton X-100. The DNA template mixture for the wild type protein contained either 100 μM dNTP, 1 μM dNTP, or 0.1 μM dNTP, designated in Table 2 as 100 μM, 1 μM, and 0.1 μM, respectfully.
Microplates with compounds (0.1 μL in each well) to be tested in the assay were prepared from 10 mM compound stocks in 100% DMSO, and equal amounts of DMSO without any compound were added to positive and negative control wells.
The protein mixture was dispensed (5 μL into each well) into compound plates and incubated at 37° C. for 15 minutes. After incubation, 5 μL of the DNA template mixture was dispensed into each well. The plates were then incubated at 37° C. for 2 hours.
During incubation, a combined stop buffer and detection reagent solution was prepared. The buffer contained 25 mM EDTA (pH 8.0), 0.02% Triton X-100, and SYBR Green I [Invitrogen] diluted 10,000× (for fluorescent readout). EDTA will stop the enzymatic reaction by chelating magnesium ions.
`Cc1cnc(-c2ccc(Cl)c(NS(=O)(=O)c3cc(C)c(Cl)cc3C)c2)s1` [Example 102, 4-chloro-N-(2-chloro-5-(5-methylthiazol-2-yl)phenyl)-2,5-dimethylbenzenesulfonamide]: the AC50 is 5 µM.

On to `Cc1cnc(-c2cc(NS(=O)(=O)c3cc(C)c(Cl)cc3C)ccc2C)s1` [Example 103, 4-chloro-2,5-dimethyl-N-(4-methyl-3-(5-methylthiazol-2-yl)phenyl)benzenesulfonamide], for which the AC50 came out at 17 µM.

The same experiment, now with this note: 100 μM dNTP, read-out: WT AC50 (μM) at 100 μM.
Take `Cc1cc(S(=O)(=O)Nc2cccc(C(=O)N(C)C(C)CO)c2)c(C)cc1Cl` (single isomer, unassigned) [Example 14, 3-((4-chloro-2,5-dimethylphenyl)sulfonamido)-N-(1-hydroxypropan-2-yl)-N-methylbenzamide]: the AC50 was greater than 100 µM. In the case of `Cc1ccc(C)c(S(=O)(=O)Nc2cccc(C(=O)N3CCCCC3C#N)c2)c1` (stereo not shown) [Example 2, N-(3-(2-cyanopiperidine-1-carbonyl)phenyl)-2,5-dimethylbenzenesulfonamide], the concentration at half-maximal activity (AC50) was found to be 1 µM. Still for that read-out and setting: the result for `Cc1ccc(C)c(S(=O)(=O)Nc2cccc(C(=O)N3CCCCC3)c2)c1` [Example 3, 2,5-dimethyl-N-(3-(piperidine-1-carbonyl)phenyl)benzene sulfonamide] reads greater than 100 µM; that for `Cc1ccc(C)c(S(=O)(=O)Nc2cccc(C(=O)N3CCCC[C@H]3C)c2)c1` [Example 5, (R)-2,5-dimethyl-N-(3-(2-methylpiperidine-1-carbonyl)phenyl)benzenesulfonamide], 5 µM; that for `Cc1ccc(C)c(S(=O)(=O)Nc2cccc(C(=O)N3CCCC[C@@H]3C)c2)c1` [Example 6, (S)-2,5-dimethyl-N-(3-(2-methylpiperidine-1-carbonyl)phenyl)benzenesulfonamide], 4 µM. As for `Cc1ccc(C)c(S(=O)(=O)Nc2cccc(C(=O)N3CCOCC3C#N)c2)c1` (stereo not shown) [Example 7, N-(3-(3-cyanomorpholine-4-carbonyl)phenyl)-2,5-dimethylbenzenesulfonamide], the AC50 came out at 1 µM. In the case of `Cc1ccc(C)c(S(=O)(=O)Nc2cccc(C(=O)N[C@@H](C)C3CC3)c2)c1` [Example 8, (S)-N-(1-cyclopropylethyl)-3-((2,5-dimethylphenyl)sulfonamido)benzamide], the AC50 was 5 µM. On to `Cc1cc(S(=O)(=O)Nc2cccc(C(=O)N3CCCC[C@H]3C)c2)c(C)cc1Cl` [Example 9, (R)-4-chloro-2,5-dimethyl-N-(3-(2-methylpiperidine-1-carbonyl)phenyl)benzenesulfonamide], for which the AC50 came to 2 µM. Turning to `Cc1cc(S(=O)(=O)Nc2cccc(C(=O)N3CCC[C@H]3C)c2)c(C)cc1Cl` [Example 10, (R)-4-chloro-2,5-dimethyl-N-(3-(2-methylpyrrolidine-1-carbonyl)phenyl)benzenesulfonamide], the AC50 turned out to be 0.5 µM. Turning to `Cc1cc(S(=O)(=O)Nc2cccc(C(=O)NCc3ccccc3)c2)c(C)cc1Cl` [Example 11, N-benzyl-3-((4-chloro-2,5-dimethylphenyl)sulfonamido)benzamide], the AC50 turned out to be 29 µM. For `Cc1cc(S(=O)(=O)Nc2cccc(C(=O)N(C)C)c2)c(C)cc1Cl` [Example 12, 3-((4-chloro-2,5-dimethylphenyl)sulfonamido)-N,N-dimethylbenzamide], the AC50 came to 5 µM. Turning to `Cc1cc(S(=O)(=O)Nc2cc(F)cc(C(=O)N3CCC[C@H]3C)c2)c(C)cc1Cl` [Example 13, (R)-4-chloro-N-(3-fluoro-5-(2-methylpyrrolidine-1-carbonyl)phenyl)-2,5-dimethylbenzenesulfonamide], the AC50 was 1 µM. Still for that read-out and setting: the result for `Cc1cc(S(=O)(=O)Nc2cccc(-c3nccs3)c2)c(C)cc1Cl` [Example 16, 4-chloro-2,5-dimethyl-N-(3-(thiazol-2-yl)phenyl)benzenesulfonamide] reads 0.2 µM; that for `Cc1cc(S(=O)(=O)Nc2cccc(-c3ncco3)c2)c(C)cc1Cl` [Example 17, 4-chloro-2,5-dimethyl-N-(3-(oxazol-2-yl)phenyl)benzenesulfonamide], 0.6 µM. On the same count and under the same terms, the figure for `Cc1cc(S(=O)(=O)Nc2cccc(-c3ccn(C)n3)c2)c(C)cc1Cl` [Example 18, 4-chloro-2,5-dimethyl-N-(3-(1-methyl-1H-pyrazol-3-yl)phenyl)benzenesulfonamide] is 1 µM; for `Cc1cc(S(=O)(=O)Nc2cccc(-c3nccn3C)c2)c(C)cc1Cl` [Example 19, 4-chloro-2,5-dimethyl-N-(3-(1-methyl-1H-imidazol-2-yl)phenyl)benzenesulfonamide] it is 0.8 µM. In the case of `Cc1cc(S(=O)(=O)Nc2cccc(-c3ncc(C(N)=O)s3)c2)c(C)cc1Cl` [Example 92, 2-(3-((4-chloro-2,5-dimethylphenyl)sulfonamido)phenyl) thiazole-5-carboxamide], the AC50 was greater than 10 µM. With `CNC(=O)c1cnc(-c2cccc(NS(=O)(=O)c3cc(C)c(Cl)cc3C)c2)s1` [Example 93, 2-(3-((4-chloro-2,5-dimethylphenyl)sulfonamido)phenyl)-N-methylthiazole-5-carboxamide], the AC50 is 3 µM.

`Cc1cc(S(=O)(=O)Nc2cccc(-c3ncc(C#N)s3)c2)c(C)cc1Cl` [Example 96, 4-chloro-N-(3-(5-cyanothiazol-2-yl)phenyl)-2,5-dimethylbenzenesulfonamide]: the AC50 was greater than 10 µM. On the same count and under the same terms, the result for `Cc1cnc(-c2ccc(C)c(NS(=O)(=O)c3cc(C)c(Cl)cc3C)c2)s1` [Example 98, 4-chloro-2,5-dimethyl-N-(2-methyl-5-(5-methylthiazol-2-yl)phenyl)benzenesulfonamide] reads greater than 10 µM; that for `Cc1cnc(-c2ccc(Cl)c(NS(=O)(=O)c3cc(C)c(Cl)cc3C)c2)s1` [Example 102, 4-chloro-N-(2-chloro-5-(5-methylthiazol-2-yl)phenyl)-2,5-dimethylbenzenesulfonamide], greater than 10 µM. Take `Cc1cnc(-c2cc(NS(=O)(=O)c3cc(C)c(Cl)cc3C)ccc2C)s1` [Example 103, 4-chloro-2,5-dimethyl-N-(4-methyl-3-(5-methylthiazol-2-yl)phenyl)benzenesulfonamide]: the AC50 was determined as 1 µM.

Take `Cc1cc(S(=O)(=O)N[C@@H]2CCCN(C(=O)[C@@H]3CCCN3C)C2)c(C)cc1Cl` [Example 104, 4-chloro-2,5-dimethyl-N-((R)-1-(methyl-L-prolyl)piperidin-3-yl)benzenesulfonamide]: the AC50 is greater than 10 µM.
